Reference: patent publication US20020128256A1, “Methods for the treatment or prevention of inflammatory diseases characterized by abnormal cell proliferation” (priority 1997, published 2002)

Columns and labels:
[1] = target: T1, Gardos channel of erythrocytes (Homo sapiens, UniProt O15554); experiment: Gardos Channel Assay; assay type: cell-based
T1 construct: endogenous in cells; host or cells: erythrocytes

[2] = system: MM-RU human melanoma cells; details: SCID mice, daily administration; cited from earlier work
[3] = system: normal and cancer cell lines; details: cited from earlier work
red cell Gardos channel = target: T2, red cell Gardos channel (Mus musculus, UniProt O89109); details: oral administration; cited from earlier work
T2 construct: host or cells: red cells of SAD mouse
T2 sequence (O89109 whole entry): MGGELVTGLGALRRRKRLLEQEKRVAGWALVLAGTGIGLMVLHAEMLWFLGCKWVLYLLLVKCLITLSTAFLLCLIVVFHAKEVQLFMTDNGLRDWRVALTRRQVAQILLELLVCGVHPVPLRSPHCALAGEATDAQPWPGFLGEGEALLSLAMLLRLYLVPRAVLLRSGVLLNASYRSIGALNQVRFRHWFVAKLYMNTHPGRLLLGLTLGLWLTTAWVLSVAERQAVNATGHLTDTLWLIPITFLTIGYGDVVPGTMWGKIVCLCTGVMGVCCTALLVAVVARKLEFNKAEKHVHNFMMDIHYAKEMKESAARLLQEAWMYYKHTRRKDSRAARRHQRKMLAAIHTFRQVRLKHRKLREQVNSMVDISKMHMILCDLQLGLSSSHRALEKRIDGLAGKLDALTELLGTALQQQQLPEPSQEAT

[4] = system: NIH 3T3 mouse fibroblast cells; experiment: Mitogenic Assay (mitogen-induced cell proliferation); assay type: cell-based
Gardos channel [5] = target: T3, Gardos channel (Homo sapiens, UniProt O15554); set-up: reduces erythrocyte dehydration in patients with sickle cell disease; host or cells: erythrocytes of patients; details: oral therapy; cited from earlier work
T3 sequence (O15554 whole entry): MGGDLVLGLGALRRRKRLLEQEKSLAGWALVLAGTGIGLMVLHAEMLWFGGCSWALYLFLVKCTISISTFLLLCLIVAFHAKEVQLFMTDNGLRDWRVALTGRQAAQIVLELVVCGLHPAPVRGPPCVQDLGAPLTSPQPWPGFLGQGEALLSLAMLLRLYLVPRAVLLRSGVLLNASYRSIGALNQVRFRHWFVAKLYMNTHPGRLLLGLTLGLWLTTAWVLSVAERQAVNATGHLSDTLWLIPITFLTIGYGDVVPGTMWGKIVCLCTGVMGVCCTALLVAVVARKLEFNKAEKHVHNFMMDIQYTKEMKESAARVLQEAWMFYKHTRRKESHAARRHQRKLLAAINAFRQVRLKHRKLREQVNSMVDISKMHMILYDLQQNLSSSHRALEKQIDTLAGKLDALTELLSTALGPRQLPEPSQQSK

Gardos channel [6] = target: T3, Gardos channel; set-up: host or cells: sickle erythrocytes (printed for Clotrimazole only); details: in vitro, sickle erythrocytes; cited from earlier work
SK-MEL-28 = experiment: SRB antiproliferative assay, SK-MEL-28; assay type: cell-based; details: SK-MEL-28 (Melanoma); 5% FCS, 5 Day Incubation; read-out: SRB assay IC50
Procedure: (§1) The antiproliferative assays described herein were performed using standard aseptic procedures and universal precautions for the use of tissues. Cells were propagated using RPMI 1640 media (Gibco) containing 2% N 5% fetal calf serum (Biowhittaker) at 37° C., 5% CO2 and 95% humidity. The cells were passaged using Trypsin (Gibco). Prior to addition of test compound, the cells were harvested, the cell number counted and seeded at 10,000 cells/well in 100 μl 5% fetal calf serum (FCS) containing RPMI medium in 96-well plates and incubated overnight at 37° C., 5% CO2 and 95% humidity.
(§2) Following incubation, the cellular protein was determined with the ulforhodamine B (SRB) assay (Skehan P et al., 1990, J. Natl. Cancer Inst. 82:1107-1112).

U118MG = experiment: SRB antiproliferative assay, U118MG; assay type: cell-based; details: U118MG (CNS); 5% FCS, 5 Day Incubation; read-out: SRB assay IC50
Procedure: as §1, §2

A549 = experiment: SRB antiproliferative assay, A549; assay type: cell-based; details: A549 (Lung); 5% FCS, 5 Day Incubation; read-out: SRB assay IC50
Procedure: as §1, §2

ACHN = experiment: SRB antiproliferative assay, ACHN; assay type: cell-based; details: ACHN (Renal); 5% FCS, 5 Day Incubation; read-out: SRB assay IC50
Procedure: as §1, §2

HCT-15 = experiment: SRB antiproliferative assay, HCT-15; assay type: cell-based; details: HCT-15 (Colon); 5% FCS, 5 Day Incubation; read-out: SRB assay IC50
Procedure: as §1, §2

HTB174 = experiment: SRB antiproliferative assay, HTB174; assay type: cell-based; details: HTB174 (Lung); 5% FCS, 5 Day Incubation; read-out: SRB assay IC50
Procedure: as §1, §2

HeLa = experiment: SRB antiproliferative assay, HeLa; assay type: cell-based; details: HeLa (Cervical); 5% FCS, 5 Day Incubation; read-out: SRB assay IC50
Procedure: as §1, §2

L929 = experiment: SRB assay, normal cells L929; assay type: cell-based, mouse; details: L929 (Normal mouse); 5% FCS, 5 Day Incubation; read-out: SRB assay IC50
Procedure: as §1, §2

HUVEC = experiment: SRB assay, normal cells HUVEC; assay type: cell-based, human; details: HUVEC (Normal human); 5% FCS, 5 Day Incubation; read-out: SRB assay IC50
Procedure: as §1, §2

SK-OV-3 = experiment: SRB antiproliferative assay, SK-OV-3; assay type: cell-based; details: SK-OV-3 (Ovary); 5% FCS, 5 Day Incubation
Procedure: as §1, §2

MCF7 = experiment: SRB antiproliferative assay, MCF7; assay type: cell-based; details: MCF7 (Breast); 5% FCS, 5 Day Incubation; read-out: SRB assay IC50
Procedure: as §1, §2

CaSki = experiment: SRB antiproliferative assay, CaSki; assay type: cell-based; details: CaSki (Cervical); 5% FCS, 5 Day Incubation; read-out: SRB assay IC50
Procedure: as §1, §2

MMRU = experiment: SRB antiproliferative assay, MMRU; assay type: cell-based, human; details: MMRU (Melanoma); 5% FCS, 5 Day Incubation; read-out: SRB assay IC50
Procedure: Cells were propagated using RPMI 1640 media (Gibco) containing 2% N 5% fetal calf serum (Biowhittaker) at 37° C., 5% CO2 and 95% humidity. The cells were passaged using Trypsin (Gibco). Prior to addition of test compound, the cells were harvested, the cell number counted and seeded at 10,000 cells/well in 100 μl 5% fetal calf serum (FCS) containing RPMI medium in 96-well plates and incubated overnight at 37° C., 5% CO2 and 95% humidity.
as §2

DU-145 = experiment: SRB antiproliferative assay, DU-145; assay type: cell-based; details: DU-145 (Prostate); 5% FCS, 5 Day Incubation; read-out: SRB assay IC50
Procedure: as §1, §2

HEPG2 = experiment: SRB antiproliferative assay, HEPG2; assay type: cell-based; details: HEPG2 (Hepatocel); 5% FCS, 5 Day Incubation; read-out: SRB assay IC50
Procedure: as §1, §2

GM = experiment: SRB assay, normal cells GM; assay type: cell-based, human; details: GM (Normal human); 5% FCS, 5 Day Incubation; read-out: SRB assay IC50
Procedure: as §1, §2

HT29 = experiment: SRB antiproliferative assay, HT29; assay type: cell-based; details: HT29 (Colon); 5% FCS, 5 Day Incubation; read-out: SRB assay IC50
Procedure: as §1, §2

MDA-MB-231 = experiment: SRB antiproliferative assay, MDA-MB-231; assay type: cell-based; details: MDA-MB-23 (Breast); 5% FCS, 5 Day Incubation; read-out: SRB assay IC50
3T3 = experiment: SRB assay, normal cells 3T3; assay type: cell-based, mouse; details: 3T3 (Normal mouse); 5% FCS, 5 Day Incubation; read-out: SRB assay IC50
Procedure: as §1, §2

T1 sequence (O15554 whole entry): as above

Clc1ccccc1C(c1ccccc1)(c1ccccc1)n1ccnc1 [Clotrimazole]
inhibition at 10 µM ([1]; read-out: Gardos Channel Assay Inhibition (%)): 99.3% | Number of lung metastases [2]: significant reduction in the number of lung metastases | Rate of cell proliferation in vitro [3]: inhibits the rate of cell proliferation of normal and cancer cell lines in a reversible and dose-dependent manner | Effect on red cells in SAD mouse (red cell Gardos channel): inhibition of the red cell Gardos channel, increased red cell K^+ content, a decreased mean cell hemoglobin concentration (MCHC) and decreased cell density | inhibition at 10 µM ([4]; Mus musculus, NIH3T3, measured at 10 μM compound, NIH 3T3 cells, read-out: Mitogenic Assay Inhibition (%)): 93% | Effect in patients with sickle cell disease (Gardos channel [5]): induces inhibition of the Gardos channel and reduces erythrocyte dehydration | Ca2+-activated K+ transport and cell dehydration in sickle erythrocytes (Gardos channel [6]): blocks Ca^2+-activated K^+ transport and cell dehydration in sickle erythrocytes

6-Chloro-3,3-di(4′-chlorophenyl)-2-N-oxime-3,3-diphenylindane [Compound 11]
IC50 (SK-MEL-28): 5.5 µM | Gardos Channel Assay Inhibition (%) ([1]; measured at 10 μM compound): 50.0% | IC50 (U118MG): > 10 µM | IC50 (A549): 8.8 µM | IC50 (ACHN): > 10 µM | IC50 (HCT-15): 6.6 µM | IC50 (HTB174): 5.9 µM | IC50 (HeLa): 5.1 µM | IC50 (L929): 8.6 µM | IC50 (HUVEC): 6.4 µM | IC50 (SK-OV-3): > 10 µM | IC50 (MCF7): 4.4 µM | IC50 (CaSki): 7 µM | IC50 (MMRU): 6.2 µM | IC50 ([4]; NIH 3T3 mouse fibroblast cells, mitogen-induced proliferation, read-out: Mitogenic Assay IC50): 3.4 µM | Mitogenic Assay Inhibition (%) ([4]; measured at 10 μM compound, NIH 3T3 cells): 99.0% | IC50 (DU-145): > 10 µM | IC50 (HEPG2): 5.8 µM | IC50 (GM): > 10 µM | IC50 (HT29): 6.8 µM | IC50 (MDA-MB-231): > 10 µM | IC50 (3T3): > 10 µM
